Experimental data: PubChem BioAssay (NCI)
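Five concentrations, 48 hours, 96-well plates. The concentration for 50% growth inhibition is given as GI50. TGI denotes the concentration required for complete inhibition of growth.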

Columns and labels:
Test in all cases: NCI tumour cell line growth inhibition, 48 h
KM12 colon = tested on: KM12 colon
HS 578T breast = tested on: HS 578T breast
A549 NSCLC = tested on: A549 NSCLC
SK-MEL-28 melanoma = tested on: SK-MEL-28 melanoma
T-47D breast = tested on: T-47D breast
SF-539 CNS = tested on: SF-539 CNS

Cc1ccccc1NC(=O)c1sc2nc3c(cc2c1N)C(=O)CCC3
GI50 (KM12 colon): 1.69 µM
TGI (KM12 colon): > 100 µM
GI50 (HS 578T breast): 1.71 µM
TGI (HS 578T breast): 5.56 µM
GI50 (A549 NSCLC): 2.22 µM
TGI (A549 NSCLC): > 100 µM
GI50 (SK-MEL-28 melanoma): 1.83 µM
TGI (SK-MEL-28 melanoma): > 100 µM
GI50 (T-47D breast): 4.81 µM
TGI (T-47D breast): > 100 µM
GI50 (SF-539 CNS): 2.13 µM
TGI (SF-539 CNS): 8.1 µM

Oc1ccc(SCc2ccc(NCc3ccccc3)cc2)cc1
TGI (KM12 colon): > 100 µM
TGI (HS 578T breast): > 100 µM
TGI (A549 NSCLC): 56.7 µM
TGI (SK-MEL-28 melanoma): > 100 µM
TGI (T-47D breast): 56.6 µM
TGI (SF-539 CNS): > 100 µM

COc1ccc(-c2[nH]ncc2-c2cc(OC)c(OC)c(OC)c2)cc1
GI50 (KM12 colon): < 0.01 µM
TGI (KM12 colon): 13.1 µM
GI50 (HS 578T breast): < 0.01 µM
TGI (HS 578T breast): 7.24 µM
GI50 (A549 NSCLC): < 0.01 µM
TGI (A549 NSCLC): > 38 µM
GI50 (SK-MEL-28 melanoma): < 0.0185 µM
TGI (SK-MEL-28 melanoma): 33.6 µM
GI50 (SF-539 CNS): < 0.01 µM
TGI (SF-539 CNS): < 0.0128 µM

CN(C)CCCC(=O)Nc1ccc(Cn2nnc3c2C(=O)c2nnn(Cc4ccc(NC(=O)CCCN(C)C)cc4)c2C3=O)cc1
GI50 (KM12 colon): 7.54 µM
TGI (KM12 colon): 22.7 µM
GI50 (HS 578T breast): 2.93 µM
TGI (HS 578T breast): 7.68 µM
GI50 (A549 NSCLC): 16.8 µM
TGI (A549 NSCLC): 39.2 µM
GI50 (SK-MEL-28 melanoma): 4.55 µM
TGI (SK-MEL-28 melanoma): 20.3 µM
GI50 (SF-539 CNS): 2.34 µM
TGI (SF-539 CNS): 5.6 µM

CC(C)CC(=O)CC(O)C(Cl)(Cl)Cl (stereo not drawn)
TGI (KM12 colon): > 100 µM
TGI (HS 578T breast): > 100 µM
TGI (A549 NSCLC): > 100 µM
TGI (SK-MEL-28 melanoma): > 100 µM
TGI (T-47D breast): > 100 µM

COC(=O)[C@]12CC[C@@H](C)[C@H](C)[C@@H]1C1=CC[C@@H]3[C@@]4(C)C=C(O)C(=O)C(C)=C4CC[C@@]3(C)[C@]1(C)CC2
GI50 (KM12 colon): 7.72 µM
TGI (KM12 colon): 21.8 µM
GI50 (HS 578T breast): 22.2 µM
TGI (HS 578T breast): 57.1 µM
GI50 (A549 NSCLC): 15.1 µM
TGI (A549 NSCLC): 31.2 µM
GI50 (SK-MEL-28 melanoma): 15.8 µM
TGI (SK-MEL-28 melanoma): 34 µM
GI50 (T-47D breast): 5.86 µM
TGI (T-47D breast): 30.8 µM
GI50 (SF-539 CNS): 12.2 µM
TGI (SF-539 CNS): 27.2 µM

Clc1ccc(Nc2nc3ccccc3c3occc23)cc1
GI50 (KM12 colon): 6.46 µM
TGI (KM12 colon): 13.8 µM
GI50 (HS 578T breast): 6.95 µM
TGI (HS 578T breast): 16.3 µM
GI50 (A549 NSCLC): 8.13 µM
TGI (A549 NSCLC): 16.8 µM
GI50 (SK-MEL-28 melanoma): 6.39 µM
TGI (SK-MEL-28 melanoma): 14.4 µM
GI50 (T-47D breast): 1.52 µM
TGI (T-47D breast): 11.3 µM
GI50 (SF-539 CNS): 9.62 µM
TGI (SF-539 CNS): 17.5 µM

CCc1nc(N)nc(N)c1-c1ccc(Cl)c(N=NN(C)C)c1
TGI (KM12 colon): > 97.3 µM
TGI (HS 578T breast): > 100 µM
TGI (A549 NSCLC): 99.5 µM
TGI (SK-MEL-28 melanoma): > 75.5 µM
TGI (T-47D breast): > 93 µM
TGI (SF-539 CNS): 56.9 µM

COc1ccc(-c2nn(-c3cccc(NC(=O)Nc4cccc(C(F)(F)F)c4)c3)cc2-c2ccncc2)cc1Cl
GI50 (KM12 colon): 1.47 µM
TGI (KM12 colon): 5.23 µM
GI50 (HS 578T breast): 1.65 µM
TGI (HS 578T breast): 7.84 µM
GI50 (A549 NSCLC): 1.83 µM
TGI (A549 NSCLC): > 100 µM
GI50 (SK-MEL-28 melanoma): 2.57 µM
TGI (SK-MEL-28 melanoma): 22.6 µM
GI50 (T-47D breast): 1.17 µM
TGI (T-47D breast): 7.69 µM
GI50 (SF-539 CNS): 1.97 µM
TGI (SF-539 CNS): 6.45 µM

C[C@@]12CCC[C@@](C)(C(=O)O)C1CC[C@@]13CC(=O)[C@@](CO)(CCC12)C3 (stereo partly drawn)
GI50 (KM12 colon): > 100 µM
TGI (KM12 colon): > 100 µM
GI50 (HS 578T breast): > 100 µM
TGI (HS 578T breast): > 100 µM
GI50 (A549 NSCLC): > 100 µM
TGI (A549 NSCLC): > 100 µM
GI50 (SK-MEL-28 melanoma): > 100 µM
TGI (SK-MEL-28 melanoma): > 100 µM
GI50 (T-47D breast): > 100 µM
TGI (T-47D breast): > 100 µM
GI50 (SF-539 CNS): > 100 µM
TGI (SF-539 CNS): > 100 µM

C=C1C(=O)O[C@H]2[C@H]1CC(=O)/C(C)=C\CC[C@@]1(C)O[C@@H]21
GI50 (KM12 colon): 4.77 µg/mL
TGI (KM12 colon): 8.79 µg/mL
GI50 (HS 578T breast): 4.43 µg/mL
TGI (HS 578T breast): 9.16 µg/mL
GI50 (A549 NSCLC): 5.21 µg/mL
TGI (A549 NSCLC): 11.3 µg/mL
GI50 (SK-MEL-28 melanoma): 1.51 µg/mL
TGI (SK-MEL-28 melanoma): 6.11 µg/mL
GI50 (T-47D breast): 2.57 µg/mL
TGI (T-47D breast): 9.53 µg/mL
GI50 (SF-539 CNS): 2.64 µg/mL
TGI (SF-539 CNS): 7.16 µg/mL

CCN1CCCCC(=N\O)/C(=N/O)CCCC1
TGI (KM12 colon): > 100 µM
TGI (HS 578T breast): > 100 µM
TGI (A549 NSCLC): > 100 µM
TGI (SK-MEL-28 melanoma): > 100 µM
TGI (SF-539 CNS): > 100 µM

Nc1nc(Nc2ccc3c(c2)CCC(N2CCCC2)CC3)nn1-c1cc2c(nn1)-c1ccccc1CCC2 (stereo not drawn)
GI50 (KM12 colon): 1.02 µM
TGI (KM12 colon): 2.73 µM
GI50 (HS 578T breast): 1.08 µM
TGI (HS 578T breast): 3.66 µM
GI50 (A549 NSCLC): 1.32 µM
TGI (A549 NSCLC): 2.92 µM
GI50 (SK-MEL-28 melanoma): 1.61 µM
TGI (SK-MEL-28 melanoma): 3.01 µM
GI50 (T-47D breast): 1.75 µM
TGI (T-47D breast): 3.95 µM
GI50 (SF-539 CNS): 0.787 µM
TGI (SF-539 CNS): 2.1 µM

Nc1c(O)c(S(=O)(=O)O)c(O)c2c1C(=O)c1ccccc1C2=O
GI50 (KM12 colon): 2.94 µM
TGI (KM12 colon): 12.8 µM
GI50 (HS 578T breast): 4.69 µM
TGI (HS 578T breast): > 100 µM
GI50 (A549 NSCLC): 2.9 µM
TGI (A549 NSCLC): 12 µM
GI50 (SK-MEL-28 melanoma): 4.09 µM
TGI (SK-MEL-28 melanoma): > 100 µM
GI50 (T-47D breast): 2.36 µM
TGI (T-47D breast): 7.37 µM
GI50 (SF-539 CNS): 6.36 µM
TGI (SF-539 CNS): 30.6 µM

COP1(=S)OCC2CCC[C@@H]2O1 (stereo partly drawn)
TGI (KM12 colon): > 100 µM
TGI (A549 NSCLC): > 100 µM
TGI (SK-MEL-28 melanoma): > 100 µM
TGI (T-47D breast): > 100 µM
TGI (SF-539 CNS): > 100 µM

COc1cccc(C2C(C#N)=C(N)Oc3cc(OC)ccc32)c1 (stereo not drawn)
GI50 (KM12 colon): 0.0314 µM
TGI (KM12 colon): 5.61 µM
GI50 (HS 578T breast): 0.0279 µM
TGI (HS 578T breast): 10.3 µM
GI50 (A549 NSCLC): 0.0496 µM
TGI (A549 NSCLC): > 100 µM
GI50 (SK-MEL-28 melanoma): 0.0577 µM
TGI (SK-MEL-28 melanoma): > 100 µM
GI50 (T-47D breast): 0.0437 µM
TGI (T-47D breast): 63.3 µM
GI50 (SF-539 CNS): 0.0231 µM
TGI (SF-539 CNS): 0.0596 µM

N#Cc1ccc2oc3ccc(C#N)cc3c(=O)c2c1
TGI (KM12 colon): > 100 µM
TGI (A549 NSCLC): 57 µM
TGI (SK-MEL-28 melanoma): 36.7 µM
TGI (T-47D breast): > 100 µM
TGI (SF-539 CNS): 43.6 µM

Oc1ccc(-c2nc3ccc4[nH]ncc4c3c3c2CCCC3)c2cccnc12
GI50 (KM12 colon): 0.311 µM
TGI (KM12 colon): 7.93 µM
GI50 (HS 578T breast): 0.163 µM
TGI (HS 578T breast): 2.67 µM
GI50 (A549 NSCLC): 0.134 µM
TGI (A549 NSCLC): 2.14 µM
GI50 (SK-MEL-28 melanoma): 0.498 µM
TGI (SK-MEL-28 melanoma): 8.61 µM
GI50 (T-47D breast): 0.697 µM
TGI (T-47D breast): 4.67 µM
GI50 (SF-539 CNS): 0.145 µM
TGI (SF-539 CNS): 1.87 µM

COc1cc(/C=C/C(=O)c2cc(OC)c(OC)c(OC)c2)cc(OC)c1OC
GI50 (KM12 colon): 1.98 µM
TGI (KM12 colon): 4.84 µM
GI50 (HS 578T breast): 2.76 µM
TGI (HS 578T breast): 59.1 µM
GI50 (A549 NSCLC): 3.74 µM
TGI (A549 NSCLC): 46.1 µM
GI50 (SK-MEL-28 melanoma): 8.57 µM
TGI (SK-MEL-28 melanoma): 24.3 µM
GI50 (T-47D breast): 3.5 µM
TGI (T-47D breast): 31.5 µM
GI50 (SF-539 CNS): 3.21 µM
TGI (SF-539 CNS): 12.9 µM

C=CCNc1cccc2c1C(=O)c1ccccc1C2(O)CC=C (stereo not drawn)
GI50 (KM12 colon): 23.6 µM
TGI (KM12 colon): 56.9 µM
GI50 (HS 578T breast): 18.8 µM
TGI (HS 578T breast): 43.5 µM
GI50 (A549 NSCLC): 23.7 µM
TGI (A549 NSCLC): 69 µM
GI50 (SK-MEL-28 melanoma): 27 µM
TGI (SK-MEL-28 melanoma): 93.3 µM
GI50 (T-47D breast): 32.2 µM
TGI (T-47D breast): > 100 µM
GI50 (SF-539 CNS): 19.5 µM
TGI (SF-539 CNS): 38.4 µM

C=C1C(=O)O[C@H]2[C@H]1CC/C(COC(=O)C(=O)c1cn(C)c3ccc(OC)cc13)=C\CC[C@@]1(C)O[C@@H]21
GI50 (KM12 colon): 6.41 µM
TGI (KM12 colon): 13.3 µM
GI50 (HS 578T breast): 11.3 µM
TGI (HS 578T breast): 50.4 µM
GI50 (A549 NSCLC): 7.61 µM
TGI (A549 NSCLC): 14.2 µM
GI50 (SK-MEL-28 melanoma): 3.14 µM
TGI (SK-MEL-28 melanoma): 8.49 µM
GI50 (T-47D breast): 5.98 µM
TGI (T-47D breast): 11.1 µM
GI50 (SF-539 CNS): 4.96 µM
TGI (SF-539 CNS): 8.94 µM
